Reference: patent EP3661951B1, “GENES AND METHODS FOR BIOTECHNOLOGICAL PRODUCTION AND COMPARTMENTALIZATION OF HIGH ADDED VALUE APOCAROTENOIDS” (Agenzia Nazionale Per Le Nuove Tecnologie, L'Energia E Lo …, priority 2017, dated 2019)

Tests used:
[1] = system: Crocus sativus CsABCC2 transporter (SEQ ID NO 14); test: In vitro transport assay ("transportomics") with yeast microsomes, inhibition by Probenecid; assay type: biochemical; conditions: Probenecid 1 mM, microsomes pre-incubated 10 minutes at room temperature; saffron hydroalcoholic extract as substrate; net ATP-dependent transport after 15 minutes; S. cerevisiae ybt1 microsomes
Description: (§1) A new in vitro assay was prepared, differing from the classical transportation assay wherein the vesicles are left to incubate for pre-established periods of time with the putative substrate, washed, lysed and the content analysed by liquid chromatography coupled to a UV/visible detector. With respect to the works existing in literature relating the in-vitro functional characterization of transporters, the present invention introduces the concept of "transportomics": the assay is based upon the transportation analysis, performed by LC-HRMS, of all molecules existing in the saffron extract. This approach, providing the use of a raw extract instead of commercial purified standards, allows to characterize the transportation even of molecules which are not commercially available; moreover, as it is based upon data obtained with high resolution mass spectrometry, rather than with photodiode series detector (PDA), the system is extremely sensitive and it allows to appreciate the transportation of low abundant metabolites.
(§2) With this method, then, it was observed that the two ABCC transporters are capable of transporting different crocins apart from some flavonoids (figure 10b, black bars). […]

[2] = system: Crocus sativus CsABCC1 transporter (SEQ ID NO 12); test: as above; assay type: biochemical; conditions: Probenecid 1 mM, microsomes pre-incubated 10 minutes at room temperature; saffron hydroalcoholic extract as substrate; net ATP-dependent transport after 15 minutes; S. cerevisiae ybt1 microsomes
Description: as §1, §2

## CCCN(CCC)S(=O)(=O)c1ccc(C(=O)O)cc1 [Probenecid]
[1]
  transportation of saffron metabolites (crocins) in presence of Probenecid inhibitor: considerable transportation reduction
[2]
  transportation of saffron metabolites (crocins) in presence of Probenecid inhibitor: considerable transportation reduction
